Assay results published in ChEMBL document CHEMBL1127370, “Synthesis and structure-activity relationship of methyl-substituted indolo[2,3-b]quinolines: novel cytotoxic, DNA topoisomerase II inhibitors” (J Med Chem, 1994).
Converted amounts (≈) assume the structure as drawn.

Columns and labels:
Nucleic Acid = settings: Bos taurus
Description: Increase of calf thymus DNA denaturation temperature (delta Tm)

Candida albicans = assay: microbe, parasite or virus in culture
Description: Tested for antimicrobial activity against Candida albicans (clinical isolate) at concentration of 0.01-5 uM/mL

Micrococcus luteus = assay: microbe, parasite or virus in culture
Description: Tested for antimicrobial activity against Micrococcus luteus PCM 525 at concentration of 0.01-5 uM/mL

Staphylococcus aureus = assay: microbe, parasite or virus in culture
Description: Tested for antimicrobial activity against Staphylococcus aureus PCM 458 at concentration of 0.01-5 uM/mL

Trichophyton benhamiae = assay: microbe, parasite or virus in culture
Description: Tested for antimicrobial activity against Trichophyton mentagrophytes (clinical isolate) at concentration of 0.01-5 uM/mL

Description for KB: Cytotoxicity in vitro against KB cell line
Description for physchem: Acid ionization constant is determined

Structure (SMILES) | ΔTm (Nucleic Acid) [°C] | ID50 (KB) [uM ml-1] | pKa (physchem) | MIC (Candida albicans) [µM] | MIC (Micrococcus luteus) [µM] | MIC (Staphylococcus aureus) [µM] | MIC (Trichophyton benhamiae) [µM]
Cc1ccc2nc3[nH]c4ccc(C)cc4c(C)c-3c2c1 | 1.6 | 0.1 | 5.98 |  |  |  | 
Cc1cccc2c(C)c3c(nc12)[nH]c1ccccc13 | 1.1 | 0.1 | 5.78 |  |  |  | 
Cc1c2ccncc2c(C)c2c1[nH]c1ccccc12 [ELLIPTECINE] | 9.8 | 0.07 | 7.4 |  |  |  | 
Cc1ccc2[nH]c3nc4ccccc4c-3c(C)c2c1 | 1.4 | 0.1 | 5.73 |  |  |  | 
Cc1ccc2[nH]c3nc4ccccc4c(C)c3c2c1 | 0.9 | 0.1 | 5.8 |  |  |  | 
c1ccc2[nH]c3nc4ccccc4c-3cc2c1 | 0.3 | 0.6 | 5.55 |  |  |  | 
Cc1ccc2nc3n(C)c4ccc(C)cc4c(C)c-3c2c1 | 19 | 0.002 | 7.68 | 15 (≈ 4.12 µg/mL) | 15 (≈ 4.12 µg/mL) | 30 (≈ 8.23 µg/mL) | 30 (≈ 8.23 µg/mL)
COc1cccc2c1C(=O)c1c(O)c3c(c(O)c1C2=O)C[C@@](O)(C(=O)CO)C[C@@H]3O[C@H]1C[C@H](N)[C@H](O)[C@H](C)O1 | 13 |  |  |  |  |  | 
Cn1c2nc3ccccc3c-2cc2ccccc21 [NEOCRYPTOLEPINE] | 5.2 | 0.006 | 7.24 | 120 (≈ 27.9 µg/mL) | 250 (≈ 58.1 µg/mL) | 250 (≈ 58.1 µg/mL) | 60 (≈ 13.9 µg/mL)
Cc1c2c3ccccc3nc-2[nH]c2ccccc12 | 0.7 | 0.2 | 5.7 |  |  |  | 
Cc1c2c3ccccc3nc-2n(C)c2ccccc12 | 11 | 0.004 | 7.45 | 30 (≈ 7.39 µg/mL) | 60 (≈ 14.8 µg/mL) | 120 (≈ 29.6 µg/mL) | 60 (≈ 14.8 µg/mL)
Cc1ccc2c(c1)c(C)c1c3ccccc3nc-1n2C | 13.3 | 0.003 | 7.6 | 15 (≈ 3.91 µg/mL) | 30 (≈ 7.81 µg/mL) | 60 (≈ 15.6 µg/mL) | 30 (≈ 7.81 µg/mL)
Cc1c2c3ccccc3nc-2n(C)c2c(C)cccc12 | 10.4 | 0.009 | 7.62 | 120 (≈ 31.2 µg/mL) | 120 (≈ 31.2 µg/mL) | 250 (≈ 65.1 µg/mL) | 60 (≈ 15.6 µg/mL)
